Assay results as given in PubChem BioAssay AID256 (DTP/NCI, 2004).
Values joined by “and” are separate entries in the source; they are usually repeats but may differ in a detail not shown here. Equal values may be shown once. Inconclusive results and toxic doses are left out. The calls were made as follows: active = survival T/C of 150% or more; inactive = T/C below 125% in these data.

System: CD2F1 mice, L1210 leukemia ip, survival T/C
Experiment: NCI In Vivo Anticancer Drug Screen. Data for tumor model L1210 Leukemia (intraperitoneal) in CD2F1 (CDF1) mice
Conditions: higher = longer survival
Procedure, shortened: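 Vehicle-treated tumor-bearing mice served as controls (C) for compound-treated mice (T). Reported figure is T divided by C.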

[1] = endpoint: mean survival time, dose: 100.0 mg/kg/injection, schedule: Q01DX001 (ip), vehicle: saline with Tween-80
[2] = endpoint: mean survival time, dose: 200.0 mg/kg/injection, schedule: Q01DX001 (ip), vehicle: saline with Tween-80
[3] = endpoint: mean survival time, dose: 100.0 mg/kg/injection, schedule: Q01DX009 (ip), vehicle: saline with Tween-80
[4] = endpoint: mean survival time, dose: 100.0 mg/kg/injection, schedule: Q04DX003 (ip), vehicle: saline with Tween-80
[5] = endpoint: mean survival time, dose: 200.0 mg/kg/injection, schedule: Q01DX009 (ip), vehicle: saline with Tween-80
[6] = endpoint: mean survival time, dose: 200.0 mg/kg/injection, schedule: Q04DX003 (ip), vehicle: saline with Tween-80
[7] = endpoint: mean survival time, dose: 400.0 mg/kg/injection, schedule: Q04DX003 (ip), vehicle: saline with Tween-80
[8] = endpoint: mean survival time, dose: 50.0 mg/kg/injection, schedule: Q01DX009 (ip), vehicle: saline with Tween-80
[9] = endpoint: mean survival time, dose: 400.0 mg/kg/injection, schedule: Q01DX001 (ip), vehicle: saline
[10] = endpoint: mean survival time, dose: 100.0 mg/kg/injection, schedule: Q04DX002 (ip), vehicle: saline with Tween-80
[11] = endpoint: mean survival time, dose: 200.0 mg/kg/injection, schedule: Q04DX002 (ip), vehicle: saline with Tween-80

Measured: T/C

N=C(N)c1ccc(OCCCOc2ccc(NC(=O)Nc3ccc(S(=O)(=O)F)cc3)cc2)cc1
inactive: endpoint: mean survival time, dose: 50.0 mg/kg/injection, schedule: Q01DX001 (ip), vehicle: saline with Tween-80 95 % of control | [1] 89 % of control | [2] 93 % of control

CCCCCCCCCCCCCCCC(=O)N(C(C)CCCN(CC)CC)C(C)CCCN(CC)CC (stereo unspecified)
inactive: endpoint: mean survival time, dose: 6.25 mg/kg/injection, schedule: Q01DX009 (ip), vehicle: Klucel (hydroxypropylcellulose) (HPC) 101 % of control | endpoint: mean survival time, dose: 12.5 mg/kg/injection, schedule: Q01DX009 (ip), vehicle: Klucel (hydroxypropylcellulose) (HPC) 100 % of control | endpoint: mean survival time, dose: 25.0 mg/kg/injection, schedule: Q01DX009 (ip), vehicle: Klucel (hydroxypropylcellulose) (HPC) 91 % of control

Cc1cc2oc(=O)cc(O)c2c(=O)o1
inactive: [3] 96 % of control | [4] 94 % of control | [5] 96 % of control | [6] 97 % of control | [7] 98 % of control

CCCCCC#CC(=O)OC
inactive: [8] 95 % of control | [3] 104 % of control | [4] 94 % of control | [5] 103 % of control | [6] 96 % of control

CC(=O)c1cc(C)c[n+](C2OC(COC(=O)c3ccccc3)C(OC(=O)c3ccccc3)C2O)c1 (stereo unspecified)
inactive: endpoint: mean survival time, dose: 3.13 mg/kg/injection, schedule: Q01DX005 (ip), vehicle: water 100 % of control | endpoint: mean survival time, dose: 6.25 mg/kg/injection, schedule: Q01DX005 (ip), vehicle: water 98 % of control | endpoint: mean survival time, dose: 12.5 mg/kg/injection, schedule: Q01DX005 (ip), vehicle: water 106 % of control | endpoint: mean survival time, dose: 25.0 mg/kg/injection, schedule: Q01DX005 (ip), vehicle: water 93 % of control | endpoint: mean survival time, dose: 50.0 mg/kg/injection, schedule: Q01DX005 (ip), vehicle: water 100 % of control and 101 % of control | endpoint: mean survival time, dose: 100.0 mg/kg/injection, schedule: Q01DX005 (ip), vehicle: water 93 % of control

CCOC(=O)C(C(=O)OC)C(=O)OCC
inactive: endpoint: mean survival time, dose: 100.0 mg/kg/injection, schedule: Q01DX001 (ip), vehicle: saline 95 % of control | endpoint: mean survival time, dose: 200.0 mg/kg/injection, schedule: Q01DX001 (ip), vehicle: saline 103 % of control | [9] 103 % of control

O=C(NCCS)Nc1ccccc1
inactive: [1] 102 % of control | [10] 104 % of control | [4] 94 % of control | [2] 98 % of control | [11] 96 % of control | [6] 86 % of control and 91 % of control | endpoint: mean survival time, dose: 400.0 mg/kg/injection, schedule: Q04DX002 (ip), vehicle: saline with Tween-80 96 % of control | [7] 86 % of control and 92 % of control

O=C(c1ccccc1)C1OC1c1ccc(Cl)cc1 (stereo unspecified)
inactive: endpoint: mean survival time, dose: 50.0 mg/kg/injection, schedule: Q04DX003 (ip), vehicle: saline with Tween-80 96 % of control | [4] 102 % of control | [6] 106 % of control

C/C=C\c1ccc(OCCOC(=O)Nc2ccc(Cl)cc2C)c(OC)c1
inactive: [8] 87 % of control | [3] 92 % of control | [5] 100 % of control

C1CCN(NC2=NCCO2)CC1
inactive: endpoint: mean survival time, dose: 6.25 mg/kg/injection, schedule: Q01DX009 (ip), vehicle: saline 101 % of control | endpoint: mean survival time, dose: 12.5 mg/kg/injection, schedule: Q01DX009 (ip), vehicle: saline 98 % of control | endpoint: mean survival time, dose: 25.0 mg/kg/injection, schedule: Q01DX009 (ip), vehicle: saline 98 % of control

S=C1SCCCS1
inactive: endpoint: mean survival time, dose: 75.0 mg/kg/injection, schedule: Q04DX003 (ip), vehicle: Klucel (hydroxypropylcellulose) (HPC) 103 % of control | endpoint: mean survival time, dose: 150.0 mg/kg/injection, schedule: Q04DX003 (ip), vehicle: Klucel (hydroxypropylcellulose) (HPC) 98 % of control | endpoint: mean survival time, dose: 300.0 mg/kg/injection, schedule: Q04DX003 (ip), vehicle: Klucel (hydroxypropylcellulose) (HPC) 98 % of control

CSc1nc(NC2OCC(O)C(O)C2O)cc(=O)[nH]1 (stereo unspecified)
inactive: endpoint: median survival time, dose: 12.5 mg/kg/injection, schedule: Q01DX005 (ip), vehicle: saline 102 % of control | endpoint: median survival time, dose: 25.0 mg/kg/injection, schedule: Q01DX005 (ip), vehicle: saline 98 % of control | endpoint: median survival time, dose: 50.0 mg/kg/injection, schedule: Q01DX005 (ip), vehicle: saline 100 % of control | endpoint: median survival time, dose: 100.0 mg/kg/injection, schedule: Q01DX005 (ip), vehicle: saline 98 % of control | endpoint: median survival time, dose: 200.0 mg/kg/injection, schedule: Q01DX005 (ip), vehicle: saline 100 % of control

Cc1ccc(N/C=C\c2cc[n+](C)cc2)nc1
inactive: endpoint: mean survival time, dose: 75.0 mg/kg/injection, schedule: Q01DX001 (ip), vehicle: saline 103 % of control | endpoint: mean survival time, dose: 150.0 mg/kg/injection, schedule: Q01DX001 (ip), vehicle: saline 106 % of control | endpoint: mean survival time, dose: 300.0 mg/kg/injection, schedule: Q01DX001 (ip), vehicle: saline 105 % of control

CCCCCCCCCCCCCCCCCc1nnc(-c2ccccc2O)o1
inactive: endpoint: mean survival time, dose: 25.0 mg/kg/injection, schedule: Q04DX002 (ip), vehicle: saline with Tween-80 100 % of control | endpoint: mean survival time, dose: 50.0 mg/kg/injection, schedule: Q04DX002 (ip), vehicle: saline with Tween-80 103 % of control | [10] 108 % of control | [11] 112 % of control

CC1CCCC2C(=O)OC(=O)C12 (stereo unspecified)
inactive: endpoint: mean survival time, dose: 100.0 mg/kg/injection, schedule: Q04DX003 (ip), vehicle: Klucel (hydroxypropylcellulose) (HPC) 92 % of control | endpoint: mean survival time, dose: 200.0 mg/kg/injection, schedule: Q04DX003 (ip), vehicle: Klucel (hydroxypropylcellulose) (HPC) 98 % of control

Nc1nc(=S)c2ncn(C3OC(CO)C(O)C3O)c2[nH]1 (stereo unspecified)
inactive: endpoint: mean survival time, dose: 20.0 mg/kg/injection, schedule: Q01DX007 (ip), vehicle: saline 107 % of control | endpoint: mean survival time, dose: 37.5 mg/kg/injection, schedule: Q01DX009 (ip), vehicle: saline 113 % of control | endpoint: mean survival time, dose: 40.0 mg/kg/injection, schedule: Q01DX009 (ip), vehicle: saline 95 % of control | endpoint: mean survival time, dose: 75.0 mg/kg/injection, schedule: Q01DX009 (ip), vehicle: saline 89 % of control
active: endpoint: mean survival time, dose: 1.0 mg/kg/injection, schedule: Q01DX005 (ip), vehicle: saline + alcohol 154 % of control | endpoint: mean survival time, dose: 2.0 mg/kg/injection, schedule: Q01DX005 (ip), vehicle: saline + alcohol 152 % of control | endpoint: mean survival time, dose: 4.0 mg/kg/injection, schedule: Q01DX005 (ip), vehicle: saline + alcohol 150 % of control | endpoint: mean survival time, dose: 10.0 mg/kg/injection, schedule: Q03DX003 (ip), vehicle: saline 151 % of control | endpoint: mean survival time, dose: 10.0 mg/kg/injection, schedule: Q04DX003 (ip), vehicle: saline 163 % of control | endpoint: mean survival time, dose: 20.0 mg/kg/injection, schedule: Q03DX003 (ip), vehicle: saline 151 % of control | endpoint: mean survival time, dose: 20.0 mg/kg/injection, schedule: Q04DX003 (ip), vehicle: saline 150 % of control | endpoint: mean survival time, dose: 40.0 mg/kg/injection, schedule: Q04DX003 (ip), vehicle: saline 164 % of control | endpoint: mean survival time, dose: 178.0 mg/kg/injection, schedule: Q01DX001 (ip), vehicle: saline 152 % of control | endpoint: mean survival time, dose: 267.0 mg/kg/injection, schedule: Q01DX001 (ip), vehicle: saline 152 % of control | [9] 159 % of control

O=C(O)/C=C/C(=O)NCc1ccco1
inactive: [4] 94 % of control | [6] 94 % of control | [7] 94 % of control

CNC(=O)Oc1cccc(NC(=O)OCCOC)c1
inactive: [4] 99 % of control | [6] 99 % of control | [7] 92 % of control

Cc1ccc(S(=O)(=O)Oc2ccc(Br)cc2)cc1
inactive: [10] 96 % of control | [11] 86 % of control

CC[N+](C)(CC)Cc1cc(C(C)=O)c(C)o1
inactive: endpoint: mean survival time, dose: 6.25 mg/kg/injection, schedule: Q04DX002 (ip), vehicle: saline 98 % of control | endpoint: mean survival time, dose: 12.5 mg/kg/injection, schedule: Q04DX002 (ip), vehicle: saline 98 % of control | endpoint: mean survival time, dose: 25.0 mg/kg/injection, schedule: Q04DX002 (ip), vehicle: saline 102 % of control | endpoint: mean survival time, dose: 50.0 mg/kg/injection, schedule: Q04DX002 (ip), vehicle: saline 91 % of control | endpoint: median survival time, dose: 50.0 mg/kg/injection, schedule: Q04DX002 (ip), vehicle: saline 100 % of control

CCOC(=O)c1cccc2ncccc12
inactive: endpoint: mean survival time, dose: 75.0 mg/kg/injection, schedule: Q04DX003 (ip), vehicle: saline 101 % of control | endpoint: mean survival time, dose: 150.0 mg/kg/injection, schedule: Q04DX003 (ip), vehicle: saline 93 % of control | endpoint: mean survival time, dose: 300.0 mg/kg/injection, schedule: Q04DX003 (ip), vehicle: saline 97 % of control

CNC(=O)/C(=C\c1ccccc1)NC(C)=O
inactive: [3] 103 % of control | [5] 98 % of control | endpoint: mean survival time, dose: 400.0 mg/kg/injection, schedule: Q01DX009 (ip), vehicle: saline with Tween-80 98 % of control

CCOC(=O)C(Br)C(Br)c1ccccc1 (stereo unspecified)
inactive: endpoint: mean survival time, dose: 50.0 mg/kg/injection, schedule: Q01DX009 (ip), vehicle: saline 108 % of control | endpoint: mean survival time, dose: 100.0 mg/kg/injection, schedule: Q01DX009 (ip), vehicle: saline 103 % of control | endpoint: mean survival time, dose: 200.0 mg/kg/injection, schedule: Q01DX009 (ip), vehicle: saline 103 % of control
